Measurements: PubChem BioAssay AID1033 (Sanford-Burnham Center for Chemical Genomics, 2008)
Activity calls are given as the source filed them. No rule for the calls is given here.

Molecular target: Chaperone protein DnaK (Escherichia coli (strain K12)) (UniProt P0A6Y8)
Assay: binders of DnaK substrate-binding domain, biophysical, NMR, chaperone (AID 1033)
Conditions: Purified DnaK SBD, NMR ligand binding

Chain of Chaperone protein DnaK (Escherichia coli (strain K12)) (P0A6Y8 whole entry, looked up, the tested form may be a part): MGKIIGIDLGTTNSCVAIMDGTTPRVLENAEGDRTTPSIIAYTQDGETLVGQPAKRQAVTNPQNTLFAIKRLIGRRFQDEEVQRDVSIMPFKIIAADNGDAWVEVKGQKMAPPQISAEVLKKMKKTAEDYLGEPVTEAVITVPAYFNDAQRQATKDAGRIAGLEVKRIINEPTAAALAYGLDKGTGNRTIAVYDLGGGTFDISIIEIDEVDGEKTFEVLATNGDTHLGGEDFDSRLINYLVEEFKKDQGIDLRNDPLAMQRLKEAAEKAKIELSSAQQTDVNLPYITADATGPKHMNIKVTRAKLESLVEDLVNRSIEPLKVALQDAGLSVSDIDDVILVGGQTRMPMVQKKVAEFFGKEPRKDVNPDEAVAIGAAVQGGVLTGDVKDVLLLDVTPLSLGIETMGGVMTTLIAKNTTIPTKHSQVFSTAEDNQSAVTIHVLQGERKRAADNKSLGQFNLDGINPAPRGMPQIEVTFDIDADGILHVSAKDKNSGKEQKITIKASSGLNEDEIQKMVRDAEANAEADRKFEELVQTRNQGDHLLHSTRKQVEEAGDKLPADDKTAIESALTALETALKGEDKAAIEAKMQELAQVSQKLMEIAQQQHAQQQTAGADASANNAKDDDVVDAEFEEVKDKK

Row | Structure (SMILES) | Kd
1 | NC(=O)CS(=O)(=O)c1ccc2ccccc2c1 | > 4 mM (inactive)
2 | Cc1c(C)n2c(SCC(N)=O)nnc2[nH]c1=O | > 4 mM (inactive)
3 | Cc1nccc2c1[nH]c1ccccc12 | > 4 mM (inactive)
4 | O=C(CO)N/N=C/c1ccccc1F | > 4 mM (inactive)
5 | C=C(C)CSc1nc2nc(C)cc(C)n2n1 | > 4 mM (inactive)
6 | NNc1ncnc2sccc12 | > 4 mM (inactive)
7 | Nc1nc(NCc2ccco2)nn1-c1ccccc1 | > 4 mM (inactive)
8 | CN1CCN(c2ccc(N)cc2)CC1 | > 4 mM (inactive)
9 | CCN1C(=O)c2cccc3c(S(N)(=O)=O)ccc1c23 | > 4 mM (inactive)
10 | CC(=O)NS(=O)(=O)c1ccc(C)cc1 | > 4 mM (inactive)
11 | O=C(CSc1ccnc(=O)[nH]1)NCc1ccco1 | > 4 mM (inactive)
12 | O=c1[nH]c(NCCO)nnc1Cc1ccccc1 | > 4 mM (inactive)
13 | COc1ccc(/C=C2/N=C(N)SC2=O)cc1 | > 4 mM (inactive)
14 | O=c1[nH]c(CN2CCN(CCO)CC2)nc2ccccc12 | > 4 mM (inactive)
15 | NC(=O)c1ccsc1NC(=O)c1ccco1 | > 4 mM (inactive)
16 | CC1(C)C=Cc2c(cc3occ(-c4ccc5c(c4)OCO5)c(=O)c3c2O)O1 | > 4 mM (inactive)
17 | OCc1ncoc1-c1ccccc1 | > 4 mM (inactive)
18 | COC(=O)Nc1ccc2ncn(C)c(=O)c2c1 | > 4 mM (inactive)
19 | Nc1cccc(C(=O)Nc2ccc(N)cc2Cl)c1 | > 4 mM (inactive)
20 | CC1=CC(=O)NC2C=CC=CC12 (stereo not given) | > 4 mM (inactive)
21 | Cc1ccc(F)cc1NC(=O)c1ccc2c(c1)OCO2 | > 4 mM (inactive)
22 | O=C(O)CNS(=O)(=O)c1cccs1 | > 4 mM (inactive)
23 | CCCCC(Nc1n[nH]c(=O)[nH]c1=O)C(=O)O (stereo not given) | > 4 mM (inactive)
24 | CCN1CCc2c(sc(N)c2C(N)=O)C1 | > 4 mM (inactive)

Row | Structure (SMILES) | Kd
25 | COC(=O)c1cncc(C(=O)OC)c1 | > 4 mM (inactive)
26 | Nc1ncnc(NCCCO)c1[N+](=O)[O-] | > 4 mM (inactive)
27 | Cc1cccc(C)c1NC(=O)CN1CCOCC1 | > 4 mM (inactive)
28 | O=C(O)C1CCN(c2ccc(C(F)(F)F)cn2)CC1 | > 4 mM (inactive)
29 | CSc1nnc2[nH]c(=O)cc(N)n12 | > 4 mM (inactive)
30 | Cc1ccc(C(=O)Nn2cnnc2)c(Cl)c1 | > 4 mM (inactive)
31 | O=C(O)C1CSC(c2cc3ccccc3nc2Cl)N1 (stereo not given) | > 4 mM (inactive)
32 | O=C(Nc1cccc(O)c1)c1ccccc1 | > 4 mM (inactive)
33 | OC12CC3CC(CC(C3)C1)C2 | > 4 mM (inactive)
34 | COC(=O)c1ccc2nsnc2c1 | > 4 mM (inactive)
35 | O=c1[nH]cc(Nc2ccccc2)c(=O)[nH]1 | > 4 mM (inactive)
36 | O=C(NCc1ccccc1Br)c1ccco1 | > 4 mM (inactive)
37 | c1cnc(N2CCSCC2)nc1 | > 4 mM (inactive)
38 | Nc1cccc(S(=O)(=O)N2CCCC2)c1 | > 4 mM (inactive)
39 | O=C(Nc1ccc2c(c1)CCC2)c1cnccn1 | > 4 mM (inactive)
40 | CC1(C)CC2C1CCC1(C)OC2(C)CCC1O (stereo not given) | > 4 mM (inactive)
41 | OCC1CCCN2CCCCC12 (stereo not given) | > 4 mM (inactive)
42 | O=C1C2C3C=CC(O3)C2C(=O)N1c1ccccc1 (stereo not given) | > 4 mM (inactive)
43 | CCc1ccc(C(=O)N2CCCC2)s1 | > 4 mM (inactive)
44 | NC(=O)CN1CCC(c2nc3ccccc3[nH]2)CC1 | > 4 mM (inactive)
45 | CC1CN(Cc2ccccn2)CCC1=O (stereo not given) | > 4 mM (inactive)
46 | COc1ccc(-c2nc(C)sc2CC(=O)O)cc1 | > 4 mM (inactive)
47 | O=C(O)CCCCCCCC(=O)O | > 4 mM (inactive)
48 | CC1(C)N=C2C(=[N+]1[O-])CCC/C2=N\O | > 4 mM (inactive)

Row | Structure (SMILES) | Kd
49 | O=C1Nc2ccccc2C1C1(O)C(=O)Nc2ccc(F)cc21 (stereo not given) | > 4 mM (inactive)
50 | CCOc1ccc(C)cc1S(=O)(=O)n1ccc(C)n1 | > 4 mM (inactive)
51 | Cc1cccc(-n2c(N)cc(=O)[nH]c2=S)c1 | > 4 mM (inactive)
52 | O=C(O)c1ccc(CN2CCCCC2)o1 | > 4 mM (inactive)
53 | O=C(O)CNC(=O)c1ccccc1Cl | > 4 mM (inactive)
54 | Cn1ncc2c(=O)n(CC(=O)c3ccccc3)cnc21 | > 4 mM (inactive)
55 | C[C@@H]1CC[C@@]23CCC4(C)[C@@](C=CC5[C@@]6(C)CCC(=O)C(C)(C)C6CC[C@]54C)(OC2=O)C3[C@H]1C (stereo not given in full) | > 4 mM (inactive)
56 | COC(=O)c1cc(-c2c[nH]c3ccccc23)n[nH]1 | > 4 mM (inactive)
57 | COc1cc(O)c(C(=O)c2ccccc2)cc1O | > 4 mM (inactive)
58 | COc1cc(OC)c2c(=O)c(-c3ccccc3)coc2c1 | > 4 mM (inactive)
59 | NC(=O)COc1cccc2cccnc12 | > 4 mM (inactive)
60 | COC(=O)Cc1cc(=O)n(-c2ccccc2)[nH]1 | > 4 mM (inactive)
61 | Cc1occc1C(=O)Nc1sccc1C(N)=O | > 4 mM (inactive)
62 | CSc1nnc2c(n1)OC(C)=Nc1ccccc1-2 | > 4 mM (inactive)
63 | O=S1(=O)CCC(NC(=S)N2CCCCC2)C1 (stereo not given) | > 4 mM (inactive)
64 | CN(C)S(=O)(=O)Nc1ccc(Br)cc1F | > 4 mM (inactive)
65 | O=C1Nc2ccc(S(=O)(=O)NCCO)c3cccc1c23 | > 4 mM (inactive)
66 | COc1ccc(CC(=O)c2ccc(O)cc2O)cc1 | > 4 mM (inactive)
67 | NC1=NC(=O)C(Cc2ccccc2)S1 (stereo not given) | > 4 mM (inactive)
68 | COc1ccccc1-c1nc(=S)[nH][nH]1 | > 4 mM (inactive)
69 | Cc1occc1C(=O)Nc1ccc2c(c1)CCC2 | > 4 mM (inactive)
70 | CN1CCN(CC(=O)Nc2ccccc2)CC1 | > 4 mM (inactive)
71 | CC(=O)Nc1cc(C(N)=O)cc(C(N)=O)c1 | > 4 mM (inactive)
72 | Cc1cc(C)cc(C(=O)n2cnnc2N)c1 | > 4 mM (inactive)

Row | Structure (SMILES) | Kd
73 | COc1cc(NC(=O)c2ccccc2)c(C)cc1N | > 4 mM (inactive)
74 | COCc1nc(-c2cc(Br)ccc2OC)no1 | > 4 mM (inactive)
75 | COc1cc2c(cc1OC)[C@@H]1C(=O)c3ccc4c(c3O[C@@H]1CO2)C=CC(C)(C)O4 | > 4 mM (inactive)
76 | COc1ccc(S(=O)(=O)Nc2ccccn2)c(C)c1C | > 4 mM (inactive)
77 | COc1cc(O)c2c(=O)cc(-c3ccc(OC)c(-c4c(O)cc(O)c5c(=O)cc(-c6ccc(O)cc6)oc45)c3)oc2c1 | > 4 mM (inactive)
78 | Cc1nn(C)c(C)c1NC(=S)NC1CCCC1 | > 4 mM (inactive)
79 | COc1ccc(-c2coc3cc(OC(C)=O)cc(OC(C)=O)c3c2=O)cc1 | > 4 mM (inactive)
80 | CC(C)Nc1nc2n(c(=O)n1)CCN2C(C)C | > 4 mM (inactive)
81 | O=C(Nc1cnccn1)c1cccnc1 | > 4 mM (inactive)
82 | Cn1c(=O)n(CC(=O)Nc2cccnc2)c2ccccc21 | > 4 mM (inactive)
83 | CC(C)c1ccccc1NC(=O)c1cnccn1 | > 4 mM (inactive)
84 | O=C(O)CC1NCCNC1=O (stereo not given) | > 4 mM (inactive)
85 | COc1ccc(-c2cc(=O)c3ccccc3o2)cc1OC | > 4 mM (inactive)
86 | C[C@@H]1C(=O)OC2[C@H](O)C34[C@@H]5OC(=O)[C@@]3(O[C@@H]3OC(=O)[C@H](O)[C@@]34[C@H](C(C)(C)C)[C@H]5O)[C@]21O (stereo not given in full) | > 4 mM (inactive)
87 | Cc1cc(O)c(C=O)c(O)c1C(=O)O | > 4 mM (inactive)
88 | C/C=C/C=N/NC(=O)c1ccc(=O)n(C)c1 | > 4 mM (inactive)
89 | Cn1c(=O)c2[nH]cnc2n(C)c1=O | > 4 mM (inactive)
90 | O=C(c1cc(-c2ccccc2)on1)N1CCCC1 | > 4 mM (inactive)
91 | CC(=O)NCCc1cc2ccc(C)c(C)c2[nH]c1=O | > 4 mM (inactive)
92 | CC(=O)c1cccc(NC(=O)Nc2c(C)nn(C)c2C)c1 | > 4 mM (inactive)
93 | CCOC(=O)c1c(C)[nH]c2ccc(O)cc12 | > 4 mM (inactive)
94 | O=C(NCO)c1ccccc1Cl | > 4 mM (inactive)
95 | CN(C)c1ccc(/C=C2/NC(=S)NC2=O)cc1 | > 4 mM (inactive)
96 | CC(C1OC(C)(C)C(O)C1O)[C@@H]1CC[C@]2(C)C3=CCC4C(C)(C)C(=O)CC[C@]4(C)C3CC[C@@]12C (stereo not given in full) | > 4 mM (inactive)

Row | Structure (SMILES) | Kd
97 | CC(C)(C)CC(=O)NC1=NCCS1 | > 4 mM (inactive)
98 | CN(C)S(=O)(=O)c1cccc(N)c1 | > 4 mM (inactive)
99 | CN1CCC(NC(=O)c2ccccc2[N+](=O)[O-])CC1 | > 4 mM (inactive)
100 | O=C1c2ccccc2-c2ncnc3cccc1c23 | > 4 mM (inactive)
101 | COc1cc(C(C)=O)ccc1OCC(O)Cn1ccnc1 (stereo not given) | > 4 mM (inactive)
102 | CC(=O)O[C@H]1CC[C@@]2(C)C(=CC(=O)C3C4CCC(C(C)CCCC(C)C)[C@@]4(C)CCC32)C1 (stereo not given in full) | > 4 mM (inactive)
103 | CN(c1ccccc1C(=O)N1CCOCC1)S(C)(=O)=O | > 4 mM (inactive)
104 | COc1ccccc1NC(N)=S | > 4 mM (inactive)
105 | CC(C)CCCC(C)[C@H]1CCC2C3CC[C@H]4CC(=O)CC[C@]4(C)C3CC[C@@]21C (stereo not given in full) | > 4 mM (inactive)
106 | COCC(=O)Nc1ccc(C)c(Cl)c1 | > 4 mM (inactive)
107 | Cn1c(=O)n(C)c2nc([N+](=O)[O-])c(Cl)cc21 | > 4 mM (inactive)
108 | COc1ccccc1-c1c(C)nn2c(C)c(C(C)=O)cnc12 | > 4 mM (inactive)
109 | CCn1c(C)c(C(C)=O)c(N2CCOCC2)nc1=S | > 4 mM (inactive)
110 | O=C(O)c1[nH]nc2c1COc1ccccc1-2 | > 4 mM (inactive)
111 | NC(=O)c1c[nH]c2ccccc12 | > 4 mM (inactive)
112 | CC(=O)c1c(O)cc(C)n(Cc2ccccc2)c1=O | > 4 mM (inactive)
113 | Cc1cc(=O)oc2cc3c(cc12)OCCO3 | > 4 mM (inactive)
114 | COC(=O)C[C@@H]1C2(C)C(=O)[C@@H](CC3=C4C=C(OC)O[C@@H](c5ccoc5)[C@]4(C)CCC32)[C@H](O)C1(C)C (stereo not given in full) | > 4 mM (inactive)
115 | O=C(NCc1cccs1)c1ccncc1 | > 4 mM (inactive)
116 | Clc1ccc(-c2noc(CN3CCCC3)n2)cc1 | > 4 mM (inactive)
117 | COC(=O)CCSCC(=O)Nc1nnc(C)s1 | > 4 mM (inactive)
118 | O=C(Nc1ccc2c(c1)OCO2)c1cccs1 | > 4 mM (inactive)
119 | NCCCCNCCCN | > 4 mM (inactive)
120 | O=C(c1ccncc1)N1CCN(C(=O)c2ccco2)CC1 | > 4 mM (inactive)
